Experimental data as given in patent US11447493B2 (Kinnate Biopharma Inc., priority 2018, dated 2022).

Tests used:
Assay in all cases: Radiometric protein kinase assay (33PanQinase), Assay Condition A (thiol containing)
Format in all cases: biochemical
CDK12 wt/CycK = CDK12 wt/CycK (Homo sapiens (Human), UniProt Q9NYV4); settings: thiol containing (1.2 mM DTT), ATP 0.3 μM
Procedure: (§1) The IC50 profile of test compounds was determined using three protein kinases.
(§2) The compounds were provided as pre-weighed powders in vials. The compounds were dissolved to 1×10^−02M by adding DMSO. 100 μl of each of the resulting stock solutions were transferred into column 2 of four 96 well “master plates”.
(§3) Prior to testing, the 1×10^−02M stock solutions in column 2 of the master plates were subjected to a serial, semi-logarithmic dilution using 100% DMSO as a solvent. […] Column 1 and 7 were filled with 100% DMSO as controls. Subsequently, 2×10 μl from each well of the serial diluted copy plates were aliquoted with a 96 channel pipettor into two identical sets of “compound dilution plates”.
(§4) In the process, 90 μl H2O were added to each well of a set of compound dilution plates. To minimize potential precipitation, the H2O was added to each plate only a few minutes before the transfer of the compound solutions into the assay plates. Each plate was shaken thoroughly, resulting in a “compound dilution plate/10% DMSO”.
(§5) For the assays, 5 μl solution from each well of the compound dilution plates/10% DMSO were transferred into the assay plates. The final volume of the assay was 50 μl. All compounds were tested at 10 final assay concentrations in the range from 1×10^−04M to 3×10^−09M, in singlicate. The final DMSO concentration in the reaction cocktails was 1% in all cases.
(§6) All protein kinases were expressed in Sf9 insect cells or in E. coli as recombinant GST-fusion proteins or His-tagged proteins, either as full-length or enzymatically active fragments. All kinases were produced from human cDNAs and purified by either GSH-affinity chromatography or immobilized metal. Affinity tags were removed from a number of kinases during purification. The purity of the protein kinases was examined by SDS-PAGE/Coomassie staining, the identity was checked by mass spectroscopy.
(§7) A radiometric protein kinase assay (^33PanQinase® Activity Assay) was used for measuring the kinase activity of the three protein kinases. All kinase assays were performed in 96-well FlashPlates™ from PerkinElmer (Boston, Mass., USA) in a 50 μl reaction volume. The reaction cocktail was pipetted in four steps in the following order: • 20 μl of assay buffer (standard buffer) • 5 μl of ATP solution (in H2O) • 5 μl of test compound (in 10% DMSO) • 20 μl enzyme/substrate mix
(§8) The reaction cocktails were incubated at 30° C. for 60 minutes. The reaction was stopped with 50 μl of 2% (v/v) H3PO4, plates were aspirated and washed two times with 200 μl 0.9% (w/v) NaCl. Incorporation of ^33Pi was determined with a microplate scintillation counter (Microbeta, Wallac). All assays were performed with a BeckmanCoulter/SAGIAN™ Core System.
(§9) The median value of the counts in column 1 (n=8) of each assay plate was defined as “low control”. This value reflects unspecific binding of radioactivity to the plate in the absence of a protein kinase but in the presence of the substrate. The median value of the counts in column 7 of each assay plate (n=8) was taken as the “high control”, i.e. full activity in the absence of any inhibitor. The difference between high and low control was taken as 100% activity.
(§10) As part of the data evaluation the low control value from a particular plate was subtracted from the high control value as well as from all 80 “compound values” of the corresponding plate. The residual activity (in %) for each well of a particular plate was calculated by using the following formula: Res. Activity (%)=100×[(cpm of compound−low control)/(high control−low control)]
(§11) The residual activities for each concentration and the compound IC50 values were calculated using Quattro Workflow V3.1.1 (Quattro Research GmbH, Munich, Germany). […] The fitting method used was a least-squares fit.

CDK2/CycA2 = CDK2/CycA2 (Homo sapiens (Human), UniProt P24941); settings: thiol containing (1.2 mM DTT), ATP 0.3 μM
Procedure: as §1, §2, §3, §4, §5, §6, §7, §8, §9, §10, §11

CDK7/CycH/MAT1 = CDK7/CycH/MAT1 (Homo sapiens (Human), UniProt P50613); settings: thiol containing (1.2 mM DTT), ATP 3.0 μM
Procedure: as §1, §2, §3, §4, §5, §6, §7, §8, §9, §10, §11

Chain of CDK7/CycH/MAT1 (P50613 whole entry): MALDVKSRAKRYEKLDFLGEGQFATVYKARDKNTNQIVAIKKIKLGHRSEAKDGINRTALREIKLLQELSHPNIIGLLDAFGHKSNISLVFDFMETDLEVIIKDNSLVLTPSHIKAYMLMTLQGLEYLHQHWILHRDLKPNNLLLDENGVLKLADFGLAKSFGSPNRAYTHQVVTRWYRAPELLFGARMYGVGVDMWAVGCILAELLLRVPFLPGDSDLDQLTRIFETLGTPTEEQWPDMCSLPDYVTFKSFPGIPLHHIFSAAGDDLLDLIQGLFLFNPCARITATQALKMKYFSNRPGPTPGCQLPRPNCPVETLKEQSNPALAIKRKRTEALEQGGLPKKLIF
Chain of CDK7/CycH/MAT1 (P51946 whole entry partner): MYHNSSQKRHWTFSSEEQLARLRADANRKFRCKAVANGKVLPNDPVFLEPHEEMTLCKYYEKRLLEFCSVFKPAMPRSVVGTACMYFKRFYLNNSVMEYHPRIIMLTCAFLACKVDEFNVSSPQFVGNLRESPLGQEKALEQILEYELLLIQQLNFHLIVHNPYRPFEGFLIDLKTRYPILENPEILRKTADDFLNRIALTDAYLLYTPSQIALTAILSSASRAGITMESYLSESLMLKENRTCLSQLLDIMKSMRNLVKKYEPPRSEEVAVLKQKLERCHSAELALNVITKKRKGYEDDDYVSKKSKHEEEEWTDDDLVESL
Chain of CDK7/CycH/MAT1 (P51948 whole entry partner): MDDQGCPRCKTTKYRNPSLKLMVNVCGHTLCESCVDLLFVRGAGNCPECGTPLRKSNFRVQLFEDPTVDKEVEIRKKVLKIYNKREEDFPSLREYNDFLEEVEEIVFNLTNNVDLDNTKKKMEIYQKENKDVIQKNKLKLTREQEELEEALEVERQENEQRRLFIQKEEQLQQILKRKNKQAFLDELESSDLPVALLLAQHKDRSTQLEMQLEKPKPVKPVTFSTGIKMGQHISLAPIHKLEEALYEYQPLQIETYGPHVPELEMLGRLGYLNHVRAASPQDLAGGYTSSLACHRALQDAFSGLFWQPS
Chain of CDK12 wt/CycK (Q9NYV4 whole entry): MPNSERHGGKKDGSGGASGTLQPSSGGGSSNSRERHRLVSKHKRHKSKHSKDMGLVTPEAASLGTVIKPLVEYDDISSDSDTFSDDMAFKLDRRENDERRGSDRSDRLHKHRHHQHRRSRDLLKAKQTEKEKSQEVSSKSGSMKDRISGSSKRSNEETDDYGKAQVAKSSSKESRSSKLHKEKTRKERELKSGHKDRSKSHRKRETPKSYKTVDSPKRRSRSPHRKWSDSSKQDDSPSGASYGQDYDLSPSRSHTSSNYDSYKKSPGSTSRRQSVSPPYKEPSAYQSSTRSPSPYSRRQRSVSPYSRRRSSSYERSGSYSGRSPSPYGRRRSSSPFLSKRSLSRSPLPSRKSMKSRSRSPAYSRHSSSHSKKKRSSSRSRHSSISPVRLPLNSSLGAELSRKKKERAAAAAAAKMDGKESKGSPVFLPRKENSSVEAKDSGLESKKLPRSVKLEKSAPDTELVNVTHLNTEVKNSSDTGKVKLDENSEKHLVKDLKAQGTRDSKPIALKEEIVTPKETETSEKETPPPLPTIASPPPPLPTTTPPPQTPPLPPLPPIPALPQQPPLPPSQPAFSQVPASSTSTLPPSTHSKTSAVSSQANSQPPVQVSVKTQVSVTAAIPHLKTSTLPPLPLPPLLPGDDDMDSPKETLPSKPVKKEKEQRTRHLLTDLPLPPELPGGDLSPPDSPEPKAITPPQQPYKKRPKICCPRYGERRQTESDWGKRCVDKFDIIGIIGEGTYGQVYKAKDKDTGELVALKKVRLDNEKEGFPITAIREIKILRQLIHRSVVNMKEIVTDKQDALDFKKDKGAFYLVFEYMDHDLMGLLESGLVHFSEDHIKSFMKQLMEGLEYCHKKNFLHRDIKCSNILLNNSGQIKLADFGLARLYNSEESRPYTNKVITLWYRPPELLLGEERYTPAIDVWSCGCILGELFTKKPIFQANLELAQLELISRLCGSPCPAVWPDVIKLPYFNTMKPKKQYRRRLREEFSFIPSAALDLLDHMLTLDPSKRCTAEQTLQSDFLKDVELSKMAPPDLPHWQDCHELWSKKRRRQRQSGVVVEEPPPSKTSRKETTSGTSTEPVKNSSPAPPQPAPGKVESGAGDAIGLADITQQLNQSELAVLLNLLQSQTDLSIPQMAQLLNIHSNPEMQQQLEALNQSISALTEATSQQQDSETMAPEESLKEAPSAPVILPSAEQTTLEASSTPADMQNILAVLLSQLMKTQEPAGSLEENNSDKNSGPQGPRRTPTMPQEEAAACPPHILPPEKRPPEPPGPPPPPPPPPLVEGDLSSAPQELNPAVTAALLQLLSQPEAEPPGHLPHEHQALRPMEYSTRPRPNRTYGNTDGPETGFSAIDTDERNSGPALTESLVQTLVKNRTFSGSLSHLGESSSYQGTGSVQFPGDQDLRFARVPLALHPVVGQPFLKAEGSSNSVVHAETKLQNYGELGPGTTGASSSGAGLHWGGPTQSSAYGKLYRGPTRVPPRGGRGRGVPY
Chain of CDK12 wt/CycK (O75909 whole entry partner): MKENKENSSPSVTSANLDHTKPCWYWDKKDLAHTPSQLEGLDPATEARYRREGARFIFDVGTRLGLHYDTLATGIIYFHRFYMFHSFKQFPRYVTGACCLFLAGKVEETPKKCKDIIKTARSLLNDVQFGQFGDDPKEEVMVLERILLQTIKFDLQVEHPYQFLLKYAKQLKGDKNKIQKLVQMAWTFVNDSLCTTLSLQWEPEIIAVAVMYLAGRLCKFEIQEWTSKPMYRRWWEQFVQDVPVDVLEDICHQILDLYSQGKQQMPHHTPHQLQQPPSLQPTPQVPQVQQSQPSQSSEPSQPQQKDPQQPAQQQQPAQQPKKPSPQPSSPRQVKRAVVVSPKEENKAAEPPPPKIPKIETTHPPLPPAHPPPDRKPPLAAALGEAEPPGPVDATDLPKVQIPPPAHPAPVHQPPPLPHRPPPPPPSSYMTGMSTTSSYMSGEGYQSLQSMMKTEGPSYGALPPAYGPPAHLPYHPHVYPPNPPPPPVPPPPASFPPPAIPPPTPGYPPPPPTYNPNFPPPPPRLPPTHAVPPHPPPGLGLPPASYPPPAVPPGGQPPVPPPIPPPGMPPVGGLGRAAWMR

IC50 (CDK12 wt/CycK) [nM]	IC50 (CDK2/CycA2) [nM]	IC50 (CDK7/CycH/MAT1) [nM]	Compound
1000 to 10000	10000 to 30000	10000 to 30000	C=CC(=O)Nc1c(C)cc(C(=O)N2CC[C@@H](Nc3ncc4ccccc4n3)C2)cc1F [Example 75, (R)—N-(2-fluoro-6-methyl-4-(3-(quinazolin-2-ylamino)pyrrolidine-1-carbonyl)phenyl)acrylamide]
100 to 1000	100 to 1000	1000 to 10000	C=CC(=O)Nc1ccc(C(=O)N2CC[C@@H](Nc3ncc4ccc(Cl)cc4n3)C2)cc1 [Example 36, (R)—N-(4-(3-((7-chloroquinazolin-2-yl)amino)pyrrolidine-1-carbonyl)phenyl)acrylamide]
100 to 1000	1000 to 10000	100 to 1000	COc1cc(C(=O)N2CC[C@@H](Nc3ncc4ccccc4n3)C2)ccc1NC(=O)/C=C/CN(C)C [Example 81, (R,E)-4-(dimethylamino)-N-(2-methoxy-4-(3-(quinazolin-2-ylamino)pyrrolidine-1-carbonyl)phenyl)but-2-enamide]
≤ 100	≤ 100	100 to 1000	C=CC(=O)Nc1ccc(C(=O)N2CC[C@@H](Nc3ncc4ccc(C(=O)O)cc4n3)C2)cc1 [Example 38, (R)-2-((1-(4-acrylamidobenzoyl)pyrrolidin-3-yl)amino)quinazoline-7-carboxylic Acid]
≤ 100	≤ 100	100 to 1000	C=CC(=O)Nc1ccc(C(=O)N2CC[C@@H](Nc3ncc4ccc(C(=O)NC)cc4n3)C2)cc1 [Example 40, (R)-2-((1-(4-acrylamidobenzoyl)pyrrolidin-3-yl)amino)-N-methylquinazoline-7-carboxamide]
≤ 100	100 to 1000	1000 to 10000	C=CC(=O)Nc1ccc(C(=O)N2CC[C@@H](Nc3ncc4ccc(C(=O)N(C)C)cc4n3)C2)cc1 [Example 41, (R)-2-((1-(4-acrylamidobenzoyl)pyrrolidin-3-yl)amino)-N,N-dimethylquinazoline-7-carboxamide]
100 to 1000	1000 to 10000	10000 to 30000	C=CC(=O)Nc1ccc(C(=O)N2CCC[C@@H](Nc3ncc4ccc(C(N)=O)cc4n3)C2)cc1 [Example 13, (R)-2-((1-(4-acrylamidobenzoyl)piperidin-3-yl)amino)quinazoline-7-carboxamide]
100 to 1000	–	–	C=CC(=O)Nc1ccc(C(=O)N2CC[C@@H](Nc3ncc4ccccc4n3)C2)c(OC)c1 [Example 73, (R)—N-(3-methoxy-4-(3-(quinazolin-2-ylamino)pyrrolidine-1-carbonyl)phenyl)acrylamide]
–	–	100 to 1000	C=CC(=O)Nc1ccc(C(=O)N2CC[C@@H](Nc3ncc4ccc(C(=O)NC)cc4n3)C2)cc1 [Example 58, (R)-2-((1-(4-acrylamidobenzoyl)pyrrolidin-3-yl)amino)-N-methylquinazoline-7-carboxamide]
≤ 100	1000 to 10000	–	C=CC(=O)N1CCCc2cc(C(=O)N3CC[C@@H](Nc4ncc5ccccc5n4)C3)ccc21 [Example 79, (R)-1-(6-(3-(quinazolin-2-ylamino)pyrrolidine-1-carbonyl)-3,4-dihydroquinolin-1(2H)-yl)prop-2-en-1-one]
≤ 100	–	–	C=CC(=O)Nc1ccc(C(=O)N2CC[C@@H](Nc3ncc4ccccc4n3)C2)cc1OC [Example 71, (R)—N-(2-methoxy-4-(3-(quinazolin-2-ylamino)pyrrolidine-1-carbonyl)phenyl)acrylamide]

Second part, the compound before the results:

Compound	IC50 (CDK12 wt/CycK) [nM]	IC50 (CDK2/CycA2) [nM]	IC50 (CDK7/CycH/MAT1) [nM]
C=CC(=O)Nc1ccc(C(=O)N2CC[C@@H](Nc3ncc4cccc(F)c4n3)C2)cc1 [Example 90, (R)—N-(4-(3-((8-fluoroquinazolin-2-yl)amino)pyrrolidine-1-carbonyl)phenyl)acrylamide]	100 to 1000	1000 to 10000	1000 to 10000
CCC(=O)Nc1ccc(C(=O)N2CC[C@@H](Nc3ncc4ccc(C(N)=O)cc4n3)C2)cc1 [Example 57, (R)-2-((1-(4-propionamidobenzoyl)pyrrolidin-3-yl)amino)quinazoline-7-carboxamide]	≤ 100	≤ 100	≤ 100
C=CC(=O)Nc1ccc(C(=O)N2CC[C@@H](Nc3ncc4ccc(S(C)(=O)=O)cc4n3)C2)cc1C [Example 93, (R)—N-(2-methyl-4-(3-((7-(methylsulfonyl)quinazolin-2-yl)amino)pyrrolidine-1-carbonyl)phenyl)acrylamide]	≤ 100	100 to 1000	1000 to 10000
C=C(CC)C(=O)Nc1ccc(C(=O)N2CC[C@@H](Nc3ncc4ccccc4n3)C2)cc1 [Example 94, (R)-2-methylene-N-(4-(3-(quinazolin-2-ylamino)pyrrolidine-1-carbonyl)phenyl)butanamide]	100 to 1000	1000 to 10000	1000 to 10000
C=CC(=O)Nc1ccc(C(=O)N2CC[C@@H](Nc3ncc4ccc(=O)[nH]c4n3)C2)cc1 [Example 42, (R)—N-(4-(3-((7-oxo-7,8-dihydropyrido[2,3-d]pyrimidin-2-yl)amino)pyrrolidine-1-carbonyl)phenyl)acrylamide]	≤ 100	100 to 1000	1000 to 10000
CCC(=O)Nc1ccc(C(=O)N2CC[C@@H](Nc3ncc4ccc(OC)cc4n3)C2)cc1 [Example 51, (R)—N-(4-(3-((7-methoxyquinazolin-2-yl)amino)pyrrolidine-1-carbonyl)phenyl)propionamide]	100 to 1000	100 to 1000	100 to 1000
C=CC(=O)Nc1ccc(C(=O)N2CCC[C@@H](Nc3ncc4ccccc4n3)C2)cc1 [Example 1, (R)-N-(4-(3-(quinazolin-2-ylamino)piperidine-1-carbonyl)phenyl)acrylamide]	1000 to 10000	–	–
CCC(=O)Nc1ccc(C(=O)N2CCC[C@@H](Nc3ncc4ccc(OC)cc4n3)C2)cc1 [Example 20, (R)-N-(4-(3-((7-methoxyquinazolin-2-yl)amino)piperidine-1-carbonyl)phenyl)propionamide]	30000 to 100000	30000 to 100000	30000 to 100000
C#CC(=O)Nc1ccc(C(=O)N2CC[C@@H](Nc3ncc4ccccc4n3)C2)cc1 [Example 70, (R)—N-(4-(3-(quinazolin-2-ylamino)pyrrolidine-1-carbonyl)phenyl)propiolamide]	≤ 100	100 to 1000	–
CCC(=O)Nc1ccc(C(=O)N2CC[C@@H](Nc3ncc4cc(F)ccc4n3)C2)cc1 [Example 46, (R)—N-(4-(3-((6-fluoroquinazolin-2-yl)amino)pyrrolidine-1-carbonyl)phenyl)propionamide]	100 to 1000	1000 to 10000	1000 to 10000
CCC(=O)Nc1ccc(C(=O)N2CC[C@@H](Nc3ncc4ccc(F)cc4n3)C2)cc1 [Example 54, (R)—N-(4-(3-((7-fluoroquinazolin-2-yl)amino)pyrrolidine-1-carbonyl)phenyl)propionamide]	100 to 1000	1000 to 10000	1000 to 10000
C=CC(=O)Nc1ccc(C(=O)N2C[C@H](Nc3ncc4ccccc4n3)[C@@H](F)C2)cc1 [Example 63, N-(4-((3S,4S)-3-fluoro-4-(quinazolin-2-ylamino)pyrrolidine-1-carbonyl)phenyl)acrylamide]	100 to 1000	10000 to 30000	1000 to 10000
C=CC(=O)Nc1ccc(C(=O)N2CC[C@@H](Nc3ncc4ccccc4n3)C2)cn1 [Example 67, (R)—N-(5-(3-(quinazolin-2-ylamino)pyrrolidine-1-carbonyl)pyridin-2-yl)acrylamide]	–	–	100 to 1000
C=CC(=O)Nc1ccc(C(=O)N2CC[C@@H](Nc3ncc4cc(F)ccc4n3)C2)cc1F [Example 69, (R)—N-(2-fluoro-4-(3-((6-fluoroquinazolin-2-yl)amino)pyrrolidine-1-carbonyl)phenyl)acrylamide]	≤ 100	1000 to 10000	–
